Assay: PPI after repeated low-dose ropinirole
Assay type: in vivo
Conditions: same low doses as quinpirole

CCCN(CCC)CCc1cccc2c1CC(=O)N2 [ropinirole]
effect on PPI over time: acts like quinpirole to attenuate PPI symptoms over time
